In patent US20260151414A1, “COMPOSITIONS AND THERAPEUTIC METHODS FOR TREATING CHRONIC SEQUALAE FOLLOWING VIRAL INFECTIONS” (priority 2023, published 2026):

Key:
PASC (Long Covid) = experiment: Clinical example: inventor's self-treatment of Long Covid (PASC) symptoms; format: in vivo, human; conditions: for relief of constant headache: person, symptoms returning from mid-December 2020 after Covid, self-medication
Covid-19 [1] = conditions: cited from earlier work
Covid-19 [2] = conditions: cited from earlier work; remark: listed apart in the source
ACE2 receptor = ACE2 receptor (Homo sapiens, UniProt Q9BYF1); conditions: active site of ACE2 receptor; cited from earlier work
Chain of ACE2 receptor (Q9BYF1 18-805): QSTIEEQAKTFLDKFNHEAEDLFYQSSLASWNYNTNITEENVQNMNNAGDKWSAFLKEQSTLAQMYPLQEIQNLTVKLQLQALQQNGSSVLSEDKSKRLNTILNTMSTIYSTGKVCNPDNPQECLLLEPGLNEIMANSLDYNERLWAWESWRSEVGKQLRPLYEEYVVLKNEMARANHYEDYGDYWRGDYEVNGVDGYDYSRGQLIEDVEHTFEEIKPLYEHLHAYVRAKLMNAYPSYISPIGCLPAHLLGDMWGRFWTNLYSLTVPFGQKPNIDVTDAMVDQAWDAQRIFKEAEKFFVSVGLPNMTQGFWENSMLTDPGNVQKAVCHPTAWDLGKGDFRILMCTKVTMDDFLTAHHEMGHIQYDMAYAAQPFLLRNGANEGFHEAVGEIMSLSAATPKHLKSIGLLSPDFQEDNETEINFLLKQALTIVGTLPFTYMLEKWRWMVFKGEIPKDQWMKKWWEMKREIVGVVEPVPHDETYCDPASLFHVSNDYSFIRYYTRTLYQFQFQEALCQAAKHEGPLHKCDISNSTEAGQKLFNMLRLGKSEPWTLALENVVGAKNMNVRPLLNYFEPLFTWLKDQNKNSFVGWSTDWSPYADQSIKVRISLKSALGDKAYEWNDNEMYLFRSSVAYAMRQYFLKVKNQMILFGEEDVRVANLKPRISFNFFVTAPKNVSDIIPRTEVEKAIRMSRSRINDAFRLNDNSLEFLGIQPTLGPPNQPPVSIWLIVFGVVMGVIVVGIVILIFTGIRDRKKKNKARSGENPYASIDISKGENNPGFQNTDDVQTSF

## CC(C)Cc1ccc(C(C)C(=O)O)cc1 (stereo not shown) [ibuprofen]
PASC (Long Covid)
  relief of constant headache: would not go away

## C=C1CC[C@@H]2[C@](C)(CO)[C@H](O)CC[C@@]2(C)[C@@H]1C/C=C1/C(=O)OC[C@H]1O [andrographolide]
Covid-19 [1]
  inhibitory effect against Covid-19: potent inhibitory effect

## COc1ccc2cc([C@H](C)C(=O)O)ccc2c1 [naproxen]
PASC (Long Covid)
  relief of constant headache: would not go away

## O=C(O)c1ccccc1 [Benzioc Acid]
Covid-19 [2]
  antiviral properties for Covid-19: strong antiviral properties

## O=c1c(O)c(-c2ccc(O)c(O)c2)oc2cc(O)cc(O)c12 [Quercetin]
PASC (Long Covid); Black Seed Oil and Quercetin (with Zinc) used together, within a few days of using them
  energy and headaches: an increase in energy and I was having fewer headaches

## CC(=O)Oc1ccccc1C(=O)O [aspirin]
PASC (Long Covid)
  relief of constant headache: would not go away

## O=C(O)C=Cc1ccccc1 [Cinnamic Acid]
ACE2 receptor
  blocking of Covid-19 via ACE2 receptor: block Covid-19 via the active site of ACE2 receptor
